Tests used:
[1] = target: T1, Recombinant human His-MEK1 (Homo sapiens, UniProt Q02750); test: SPR (Biacore T200) on immobilised His-MEK1; type: binding; conditions: 15° C.; 20 mM HEPES, 150 mM NaCl, 5% DMSO pH 7.4
T1 construct: purchased ThermoFisher Scientific PV3303
Description: (§1) SPR. SPR was performed on a Biacore T200. The active and reference flow cells of a Xantec NIHMC Ni sensor chip were conditioned with 0.5M NaEDTA followed by 5 mM NiCl2 in immobilisation buffer (20 mM HEPES, 150 mM NaCl, pH 7.4). Recombinant human His-MEK1 and His-MEK2 (500 nM, ThermoFisher Scientific, cat. PV3303 and PV3615, respectively) were injected for 15 min at 10 μl min^−1 over separate active flow cells. All immobilisation was carried out at 25° C. Following immobilisation, the temperature was lowered to 15° C., and the buffer changed to 20 mM HEPES, 150 mM NaCl, 5% DMSO pH 7.4. Samples of PD98059 (2.5-30 μM in running buffer) and BT2 (1.25-15 μM) were injected at a flow rate of 30 μl min^−1 over immobilised MEK1 and MEK2. Solvent correction was applied to the data using a DMSO standard curve. Data were analysed using the Biacore T200 Evaluation software. Prior to SPR, limits of compound solubility were determined using ^1H 1D NMR.

[2] = Solubility on dilution in medium containing serum; type: physicochemical; conditions: dilution in medium containing serum
HMEC-1 [3] = test: Endothelial proliferation assay using the xCELLigence system; type: cell-based, human; conditions: HMEC-1, 5% FBS, 79 h; for serum-inducible endothelial proliferation (xCELLigence cell index): 0.2-1 μM
Description: Endothelial proliferation assay using the xCELLigence system. HMEC-1 proliferation was evaluated using the xCELLigence System (Roche, Castle Hill). Briefly, HMEC-1 (5×10^3 cells/well) were seeded in a 96-well E-plate and inserted into the xCELLigence RTCA station (Roche). Cells were serum-deprived for 24 h in MCDB131 medium which contained 10 ng/ml EGF (Sigma-Aldrich) and 1 μg/ml hydrocortisone (Sigma-Aldrich) then treated with compound (0.2-1 μM) in medium containing 5% FBS, 10 ng/ml EGF (Sigma-Aldrich) and 1 μg/ml hydrocortisone (Sigma-Aldrich). Cell growth was monitored automatically every 15 min by xCELLigence system. Cell index (CI) represents a quantitative measure of each well cell growth. In this system, CI a unitless parameter that reports impedance of electron flow caused by adherent cells.

HMEC-1 [4] = test: Endothelial network formation assay on Matrigel; type: cell-based, human; conditions: for endothelial network (tubule) formation on Matrigel: 3 μM, 1% FBS, 50 ng/ml FGF-2, 2, 4, 6 and 24 h
Description: Endothelial network formation assay. HMEC-1 (4×10^4 cells/well) in MCDB131 containing 1% FBS and compound (1 or 3 μM) or curcumin (1-40 μM) and 50 ng/ml FGF-2 were added to 96-well plates coated overnight at 4° C. with 100 μl of growth factor-reduced reconstituted basement membrane matrix (Matrigel, cat. 354230, Corning, NY). Network formation was observed over subsequent hours and photographed under 4× or 10× objective using an Olympus CKX41 microscope.

[5] = target: T2, Recombinant human His-MEK2 (Homo sapiens, UniProt P36507); test: SPR (Biacore T200) on immobilised His-MEK2; type: binding; conditions: 15° C.; 20 mM HEPES, 150 mM NaCl, 5% DMSO pH 7.4
T2 construct: purchased ThermoFisher Scientific PV3615
Description: as §1

BAEC = test: Endothelial dual chamber migration assay toward VEGF-A165; type: cell-based, bovine; conditions: 1 μM; Transwell; 10% FBS and 50 ng/ml VEGF-A165 in lower chamber; 24 h
Description: Endothelial dual chamber migration assay. BAEC (6×10^3 cells/well) suspended in DMEM supplemented with 10% FBS were seeded into the upper chamber of 24-well plates fitted with Millicell cell culture inserts (cat. PI8P01250, Millipore). After 48 h, the medium was changed to DMEM supplemented with 0.01% FBS and the cells were incubated for 48 h. Compounds prepared in DMEM containing 0.01% FBS were added to the upper chamber. VEGF-A165 (50 ng/ml, Sigma, cat. V7259) in medium containing 10% FBS was added to the lower chamber. After 24 h, medium from the upper chamber was removed and a cotton swab was used to remove non-migrated cells and excess liquid. The insert was placed in 70% ethanol for 10 min to allow cell fixation and membranes were dried for 10-15 min. Filters were excised and placed on slides. Mounting medium (Fluoroshield™ with DAPI, Sigma, cat. 6057) was added and specimens were visualized using an EVOS FL microscope.

c-Fos = test: Western blot, serum-inducible c-Fos expression in HMEC-1; type: cell-based, human; conditions: 30 μM compound, 10% FBS 1 h
Description: (§2) Western blot analysis with extracts of cells treated with serum. HMEC-1 (80-90% confluency) were arrested in serum-free MCDB131 medium without EGF or hydrocortisone for 20 h. Cells were treated with 30 μM compound in serum-free MCDB131 medium for 4 h, and the medium was changed to complete medium (with 10% FBS with EGF and hydrocortisone) with 30 μM compound for 1 h. Total protein was harvested as previously described in radioimmunoprecipitation (RIPA) lysis buffer with protease inhibitors (Li, Y., et al., Int J Cardiol 220, 185-191 (2016)). Proteins were resolved on 4-20% (w/v) sodium dodecyl sulfate (SDS)-polyacrylamide gradient gels (Bio-Rad Mini-PROTEAN TGX) and transferred to Immobilon-P PVDF membranes (Millipore, USA). Membranes were blocked with 5% skim milk and incubated with rabbit monoclonal FosB (cat. 2251, 1:1000, Cell Signaling, USA), rabbit monoclonal c-Fos antibodies (cat. 2250, 1:1000, Cell Signaling, USA) at 4° C. overnight or mouse monoclonal […] antibodies (cat. A5316, 1:30000, Sigma-Aldrich) at 22° C. for 15 min then incubated with a horseradish peroxidase conjugated secondary goat anti-rabbit (cat. P0448, 1:1000, DAKO Cytomation, Denmark) or goat anti-mouse (cat. P0447, 1:1000, DAKO Cytomation, Denmark) antibodies for 1 h. Chemiluminescence was detected using the Western Lightning Chemiluminescence system (PerkinElmer, USA) and ImageQuant™ LAS 4000 biomolecular imager (GE Healthcare Life Sciences, USA). Band intensity in images generated with the LAS 4000 on automatic exposure with sensitivity/resolution setting high was quantified using NIH ImageJ.

HMEC-1 [6] = test: Endothelial repair following in vitro injury (scratch assay); type: cell-based, human; conditions: 0.6 μM, 5% FBS, 48 h
Description: Endothelial repair following in vitro injury. HMEC-1 (90-100% confluency) in 6-well plates were washed with PBS, and treated with 0.6 μM compound in MCDB131 containing 5% FBS. A sterile pointed toothpick was used to scrape the cell monolayer and the wells photographed under 4× objective at 0 h and 48 h. Cell regrowth in the denuded zone was determined using Image-Pro Plus (Cybernetics, USA).

FosB/ΔFosB = test: Western blot, serum-inducible FosB/ΔFosB expression in HMEC-1; type: cell-based, human; conditions: 30 μM compound, 10% FBS 1 h
Description: as §2

p-SAPK/JNK = test: Western blot, IL-1β-inducible p-SAPK/JNK in HMEC-1; type: cell-based, human; conditions: 1-30 μM
Description: (§3) Western blot analysis with extracts of cells treated with IL-13. HMEC-1 (80-90% confluency) were arrested in serum-free MCDB131 medium (Invitrogen, MD) without any growth factor for 48 h. Cells were treated with 30 μM compound in serum-free medium for 4 h, and incubated with 20 ng/ml IL-1β (Sigma, cat. SRE3083) in serum-free medium with the same concentration of compound for up to 4 h, unless otherwise indicated. Total protein was harvested as previously described using RIPA buffer with protease inhibitors. Proteins were resolved on 4-20% (w/v) SDS-polyacrylamide gradient gels and transferred to Immobilon-P PVDF membranes. […] Chemiluminescence was detected using the Western Lightning Chemiluminescence system and ImageQuant™ LAS 4000 biomolecular imager. Band intensity in images generated with the LAS 4000 using the same settings were quantified by NIH ImageJ.

p-p38 = test: Western blot, IL-1β-inducible p-p38 in HMEC-1; type: cell-based, human; conditions: 1-30 μM
Description: as §3

T2 sequence (P36507 whole entry): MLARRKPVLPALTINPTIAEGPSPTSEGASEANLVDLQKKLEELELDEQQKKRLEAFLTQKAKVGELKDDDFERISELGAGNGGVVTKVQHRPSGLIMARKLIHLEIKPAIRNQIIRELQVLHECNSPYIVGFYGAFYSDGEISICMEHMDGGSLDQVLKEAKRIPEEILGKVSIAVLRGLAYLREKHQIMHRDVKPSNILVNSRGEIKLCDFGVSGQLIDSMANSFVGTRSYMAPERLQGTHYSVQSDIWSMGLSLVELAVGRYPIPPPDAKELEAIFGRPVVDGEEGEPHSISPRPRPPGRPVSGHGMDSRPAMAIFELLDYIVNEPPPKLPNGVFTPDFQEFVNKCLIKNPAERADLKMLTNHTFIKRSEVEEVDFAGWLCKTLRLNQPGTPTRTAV
T1 sequence (Q02750 whole entry): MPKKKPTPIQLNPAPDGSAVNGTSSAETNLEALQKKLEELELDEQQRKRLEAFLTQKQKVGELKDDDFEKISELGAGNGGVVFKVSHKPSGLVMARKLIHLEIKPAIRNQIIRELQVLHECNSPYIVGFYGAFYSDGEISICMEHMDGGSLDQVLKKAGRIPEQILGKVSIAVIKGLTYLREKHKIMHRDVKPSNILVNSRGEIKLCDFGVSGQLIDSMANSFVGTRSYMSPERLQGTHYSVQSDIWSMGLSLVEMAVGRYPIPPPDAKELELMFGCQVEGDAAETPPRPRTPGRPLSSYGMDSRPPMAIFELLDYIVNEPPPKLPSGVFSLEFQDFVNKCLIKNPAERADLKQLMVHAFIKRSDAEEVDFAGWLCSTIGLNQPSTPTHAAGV

Structure (SMILES)	binding to His-MEK1 (SPR) [1]	binding to His-MEK2 (SPR) [5]	migration of BAEC toward VEGF-A165 (BAEC)	endothelial regrowth after mechanical injury in vitro (HMEC-1 [6])	serum-inducible endothelial proliferation (xCELLigence cell index) (HMEC-1 [3])	serum-inducible FosB/ΔFosB expression (Western blot) (FosB/ΔFosB)	other results
CCN1C(=O)c2cc(NC(=O)COC)ccc2Oc2ccccc21 [BT2-MeOA, N-(10-ethyl-11-oxo-10,11-dihydrodibenzo[b,f][1,4]oxazepin-2-yl)-2-methoxyacetamide]	no appreciable binding	no appreciable binding					solubility relative to BT2 and analogues [2]: greater solubility than BT2; inhibition of serum-inducible proliferation compared with BT2 (HMEC-1 [3]; 0.4 or 0.8 μM): Neither BT2-MeOA nor any other BT2 analogue had the ability to inhibit; inhibition of network formation on Matrigel (FIG. 5B) (HMEC-1 [4]; 1 μM): Neither BT2-MeOA nor any other BT2 analogue had the ability to inhibit
CCCN1C(=O)c2cc(NC(=O)OCC)ccc2Oc2ccccc21 [BT2-Pr, ethyl (11-oxo-10-propyl-10,11-dihydrodibenzo[b,f][1,4]oxazepin-2-yl)carbamate]	no appreciable binding	no appreciable binding					
COCCOC(=O)NC(=O)Nc1ccc(C(=NO)c2ccc(Cl)cc2)cc1 [Compound T4]			inhibited migration	blocked this reparative response	inhibited serum-inducible proliferation at concentrations in a dose-dependent manner	inhibited less potently	serum-inducible c-Fos expression (Western blot) (c-Fos): inhibit; endothelial network (tubule) formation on Matrigel (HMEC-1 [4]): inhibited network formation
COC(=O)Nc1nc2ccc(C(=O)c3ccc(F)cc3)cc2[nH]1 [Compound T6, Flubendazole, reference compound]			inhibited migration	blocked this reparative response	inhibited serum-inducible proliferation at concentrations in a dose-dependent manner	inhibited less potently	serum-inducible c-Fos expression (Western blot) (c-Fos): inhibit; endothelial network (tubule) formation on Matrigel (HMEC-1 [4]): inhibited network formation
Nc1ccc(C(=O)c2ccc(F)cc2)cc1 [Compound T7, (4-aminophenyl)(4-fluorophenyl)methanone]				no such effect	no inhibitory effect	no inhibition	
COc1cccc(-c2cc(=O)c3ccccc3o2)c1N [PD98059, reference compound]	bound to both His-MEK1 and His-MEK2	bound to both His-MEK1 and His-MEK2	neither BT3, nor PD98059 (allosteric MEK inhibitor), imatinib (tyrosine kinase inhibitor) or tofacitinib (Janus kinase inhibitor) had an inhibitory effect				IL-1β-inducible p-SAPK/JNK (p-SAPK/JNK): no effect; IL-1β-inducible p-p38 (p-p38): no effect
COc1cc(/C=C/C(=O)CC(=O)/C=C/c2ccc(O)c(OC)c2)ccc1O [curcumin, reference compound]							endothelial network formation (HMEC-1 [4]; 1 μM, after 4 h): no inhibition; inhibition at 30 µM (HMEC-1 [4]; Homo sapiens, 30 μM, after 4 h): ~25%; inhibition at 40 µM (HMEC-1 [4]; Homo sapiens, 40 μM, after 4 h): ~50%
Cc1ccc(NC(=O)c2ccc(CN3CCN(C)CC3)cc2)cc1Nc1nccc(-c2cccnc2)n1 [imatinib]			neither BT3, nor PD98059 (allosteric MEK inhibitor), imatinib (tyrosine kinase inhibitor) or tofacitinib (Janus kinase inhibitor) had an inhibitory effect				
C[C@@H]1CCN(C(=O)CC#N)C[C@@H]1N(C)c1ncnc2[nH]ccc12 [tofacitinib]			neither BT3, nor PD98059 (allosteric MEK inhibitor), imatinib (tyrosine kinase inhibitor) or tofacitinib (Janus kinase inhibitor) had an inhibitory effect				

Reference: US20260102407A1, “TREATMENT METHODS” (priority 2020, published 2026)
